Assay results taken from patent publication US5317014A, “Peptides and pseudopeptides derived from tachykinin” (priority 1991, dated 1994).
Counter-ions that a name gives are not always drawn.

Tests used:
NK2 receptor = molecular target: T1, NK2 receptor (Oryctolagus cuniculus, UniProt P79218); test: Bio assay on isolated smooth muscle: rabbit pulmonary artery without endothelium; type: cell-based; conditions: antagonistic power, read-out: pA2 NK2 (converted)
T1 construct: three smooth muscle preparations were used; from tissue; host or cells: rabbit pulmonary artery without endothelium (isolated smooth muscle)
T1 sequence (P79218 1-384): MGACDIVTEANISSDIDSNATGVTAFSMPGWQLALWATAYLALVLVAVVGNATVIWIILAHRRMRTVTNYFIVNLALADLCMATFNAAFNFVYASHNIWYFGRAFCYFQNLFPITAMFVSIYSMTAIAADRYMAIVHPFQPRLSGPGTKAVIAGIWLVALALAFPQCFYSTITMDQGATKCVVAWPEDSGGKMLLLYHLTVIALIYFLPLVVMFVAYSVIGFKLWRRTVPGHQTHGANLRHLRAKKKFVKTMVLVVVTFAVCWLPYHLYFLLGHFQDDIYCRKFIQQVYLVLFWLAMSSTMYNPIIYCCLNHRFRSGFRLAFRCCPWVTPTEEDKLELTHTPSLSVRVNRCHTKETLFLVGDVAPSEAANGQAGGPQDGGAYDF
Protocol: (§1) In order to evaluate the neurokinin antagonistic potential of the compounds of the invention, three smooth muscle preparations were used. Each of these preparations, described as having a good specificity for one type of receptor for neurokinins, was carried out conforming to the following techniques described in the literature:
rabbit pulmonary artery without endothelium for the study of the NK2 receptor according to D. REGOLI et al. (European J. Pharmacol. 125, 37-44, 1985);
(§2) The antagonistic power of the compounds of the invention is expressed in the form of pA2 as defined by O. ARUNLAKSHANA and H. O. SCHILD (Brit. J. Pharmacol., 14, 48-58, 1959).

NK3 receptor = molecular target: T2, NK3 receptor (Rattus norvegicus, UniProt P16177); test: Bio assay on isolated smooth muscle: rat portal vein; type: cell-based; conditions: antagonistic power, read-out: pA2 NK3 (converted)
T2 construct: three smooth muscle preparations were used; from tissue; host or cells: rat portal vein (isolated smooth muscle)
T2 sequence (P16177 1-452): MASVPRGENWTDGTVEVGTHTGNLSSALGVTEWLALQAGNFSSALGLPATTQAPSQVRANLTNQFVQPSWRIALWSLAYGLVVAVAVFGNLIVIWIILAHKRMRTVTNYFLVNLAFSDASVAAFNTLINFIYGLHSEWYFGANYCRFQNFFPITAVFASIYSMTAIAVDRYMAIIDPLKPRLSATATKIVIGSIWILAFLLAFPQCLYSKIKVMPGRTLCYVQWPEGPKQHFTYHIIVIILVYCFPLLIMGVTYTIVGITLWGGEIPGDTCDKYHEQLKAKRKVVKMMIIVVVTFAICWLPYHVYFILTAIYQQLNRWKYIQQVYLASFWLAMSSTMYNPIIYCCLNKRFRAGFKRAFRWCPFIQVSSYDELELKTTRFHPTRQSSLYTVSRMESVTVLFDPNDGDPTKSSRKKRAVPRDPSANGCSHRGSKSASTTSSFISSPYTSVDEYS
Protocol: as §1
rat portal vein for the study of the NK3 receptor according to D. REGOLI et al. (European J. Pharmacol. 134, 321-326, 1986).
as §2

NK1 receptor = type: cell-based, rabbit; conditions: for pA2 NK1: antagonistic power, rabbit vena cava
Protocol: as §1
rabbit vena cava for the study of the NK1 receptor according to D. REGOLI et al. (J. Cardiovasc. Pharmacol., in press);
as §2

mouse = test: Eddy test in the mouse (thermal hyperalgesia, hot plate 55° C.); type: in vivo; conditions: dose increasing the reaction time by 50%; i.v. 5 minutes before heating plate; CD1 male mice
Protocol: This test consists in measuring the reaction time to heat determined by licking of the forepaws in a mouse (CD1 male, Ch. River, 25-30 g) placed on a metal plate heated to 55° C.
The animals were treated intravenously with the compounds of the invention 5 minutes before passing onto the heating plate.
The mean of the reaction times obtained for each batch treated (12 mice per batch) was compared with the mean of the corresponding control batch.

| Molecule | Kb (NK2 receptor) [µM] | Kb (NK3 receptor) [µM] | pA2 NK1 (NK1 receptor) | Eddy test in the mouse ED50 (mouse) [mg/kg i.v.] | antagonistic activity with respect to NK1 receptors, compared with NK2 and NK3 (in words) (NK1 receptor; isolated smooth muscle preparations) |
| --- | --- | --- | --- | --- | --- |
| CN(Cc1ccccc1)C(=O)[C@H](Cc1ccccc1)NC(=O)[C@@H](Cc1cn(C=O)c2ccccc12)NC(=O)C[C@@H]1NC(=O)[C@@H]2C3CCC(CC3)N2C1=O [Example 1, Cyclo(Abo--Asp)--trp(CHO)--Phe--N(CH3)CH2 C6 H5] | 13.8 | 13.8 | – | – | – |
| CN(Cc1ccccc1)C(=O)[C@H](Cc1ccccc1)NC(=O)[C@@H](Cc1cn(C=O)c2ccccc12)NC(=O)C[C@H]1NC(=O)[C@H]2C3CCC(CC3)N2C1=O [Example 5, Cyclo(abo--asp)--trp(CHO)--Phe--N(CH3)CH2 C6 H5] | 2 | 13.8 | – | – | – |
| CN(Cc1ccccc1)C(=O)[C@H](Cc1ccccc1)NC(=O)[C@@H](Cc1cn(C=O)c2ccccc12)NC(=O)C[C@H]1NC(=O)[C@@H]2Cc3ccccc3CN2C1=O [Example 6, Cyclo(Tic--asp)--trp(CHO)--Phe--N(CH3)CH2 C6 H5] | > 6.76 | 13.5 | 6.87 | – | – |
| CN(Cc1ccccc1)C(=O)[C@H](Cc1ccccc1)NC(=O)[C@@H](Cc1cn(C=O)c2ccccc12)NC(=O)C[C@@H]1NC(=O)[C@H](Cc2ccccc2)N(C)C1=O [Example 7, Cyclo(MePhe--Asp)--trp(CHO)--Phe--N(CH3)CH2 C6 H5] | 13.5 | 13.5 | 6.87 | – | – |
| CN(Cc1ccccc1)C(=O)[C@H](Cc1ccccc1)NC(=O)[C@@H](Cc1c[nH]c2ccccc12)NC(=O)C[C@@H]1NC(=O)[C@@H]2C3CCC(CC3)N2C1=O [Example 9, Cyclo(Abo--Asp)--trp--Phe--N(CH3)CH2 C6 H5] | 1 | – | – | – | – |
| CN(Cc1ccccc1)C(=O)[C@H](Cc1ccccc1)NC(=O)C[C@@H]1NC(=O)[C@@H]2Cc3ccccc3CN2C1=O [Example 16, Cyclo(Tic--Asp)--Phe--N(CH3)CH2 C6 H5] | 19.1 | 19.1 | 6.02 | – | – |
| CN(Cc1ccccc1)C(=O)[C@H](Cc1ccccc1)NC(=O)[C@@H]1C2CCC(CC2)N1C(=O)c1c[nH]c2ccccc12 [Example 31, (indol-3-yl) carbonyl--Abo--Phe--N(CH3)CH2 C6 H5] | 13.8 | 9.12 | 7.34 | – | – |
| CN(Cc1ccccc1)C(=O)[C@H](Cc1ccccc1)NC(=O)[C@@H](Cc1cn(C(=O)CCCCCCN)c2ccccc12)NC(=O)C[C@@H]1NC(=O)[C@@H]2C3CCC(CC3)N2C1=O [Example 38, Cyclo(Abo--Asp)--trp(CO(CH2)6 NH2, HCl)--Phe--N(CH3)CH2 C6 H5] | – | – | 6.70 | – | – |
| CN1CC[C@]23c4c5ccc(O)c4O[C@H]2[C@@H](O)C=C[C@H]3[C@H]1C5 [morphine] | – | – | – | 0.5 | – |
| Cyclo(Tic--asp)--.PSI.(CH2 S)--Phe--N(CH3)CH2 C6 H5 [Example 24] | – | – | – | – | more particularly the case |
